According to patent US9120819B2, “FGF-receptor agonist dimeric compounds” (SANOFI, priority 2006, dated 2015):

Columns and labels:
[1] = tested on: human vein endothelial cells (HUVECs); assay: In vitro angiogenesis model (HUVEC rearrangement on matrigel, pseudotubule length); type: cell-based; details: at a concentration of 10 nM, 24 hours
Method: In vitro Angiogenesis Model
The products are tested in terms of inducing the rearrangement of human vein endothelial cells (HUVECs) on matrigel (Becton dickinson 356230) diluted in collagen (rat tail collagen, type I: Becton dickinson 354236). After 24 hours, the cells are observed under the microscope with a X4 objective and the length of the pseudotubules is measured by means of an image analyser (BIOCOM-Visiolab 2000 software).

C57 mice = assay: Model of post-ischaemic leg revascularization in mice; type: in vivo; details: 30 mg/kg/day administered subcutaneously for 7 days
Method: Model of Post-Ischaemic Leg Revascularization in Mice
The experiment is carried out on C57 mice (IFFA CREDO France).
The animals are anaesthetized by intraperitonal injection, in a volume of 10 ml/kg, of a solution of 50 mg/kg ketamine (Ketamine 1000 Virbac®, Virbac Carros France) and 10 mg/kg xylazine (Rompun 2%®, Bayer Pharma Puteaux France). The animal is placed so that it is lying on its back, and after shaving and disinfection of the skin by painting with Vetedine® solution (Vetoquinol S.A. Lure France), an incision is made in the inguinal region. The femoral artery is excized, the collateral arteries are cauterized and the external and circumflex iliac arteries are ligatured. The skin is sutured with separate stitches using non-resorbable thread. The animals are placed in the recovery room, the temperature of which is regulated at 25° C., until they are completely awake.
The distal perfusion is measured using a laser Doppler scanner (LDPI Lisca Perimed model PIM II, AB Sweden). This technique makes it possible to measure the cutaneous perfusion of the upper part of the back legs. […] Measurements are carried out successively on the healthy leg and on the leg rendered ischaemic in order to establish a perfusion deficit expressed as %. […]

FGF-R1β-hMp1 = assay: Baf/3-FGFR1β proliferation model; type: cell-based, murine; details: at a concentration of 30 μM
Method: (§1) Baf/3-FGFR1β or FGF-R4α Proliferation Model
(§2) Obtaining the Chimeric Receptor Constructs
(§3) The chimeric receptors are made up of the intracellular portion of hMp1 (NM_005373) and the transmembrane and extracellular domains of FGF-R1β or FGF-R4α.
(§4) For each FGF receptor, the FGF-R (BamHI-SacI) and hMp1 (SacI-NotI) fragments are simultaneously cloned into the vector pEF6 (Invitrogen) digested with BamHI and NotI.
(§5) Murine BaF/3 cells are transfected by electroporation. 20 μg of plasmid carrying the constructs FGF-R1β-hMp1 or FGF-R4α-hMp1 are mixed with 5×10^6 cells taken up in 800 μl of RPMI (invitrogen). The mixture is subjected to two electric shocks of 400 V with an interval of 0.1 ms. The cells are taken up for 48 h in an RPMI medium containing 10% FCS (foetal calf serum, gibco), glutamine (invitrogen), NEAA (nonessential amino acids, invitrogen), NaPyr (sodium pyruvate, invitrogen) and 10 ng/ml of IL-3, before being selected with 10 μg/ml of blasticidin (Cayla).
(§6) Culture of Transfected Cells […]
(§7) A confluent culture of BaF/3 cells carrying the chimeric receptors is passaged one-in-three in culture medium supplemented with IL-3 (10 ng/ml) for 24 h. […] The plates are incubated for 28 h at 37° C. and then 100 μl of Cell Titer Glo (Promega) are added and the amount of ATP is quantified using a luminometer (Luminoskan Ascent, Labsystems).

FGF-R4α-hMp1 = assay: Baf/3-FGF-R4α proliferation model; type: cell-based, murine; details: at a concentration of 30 μM
Method: as §1, §2, §3, §4, §5, §6, §7

## COc1c(C)c(C(=O)c2ccc(N)c(C(=O)[O-])c2)n2cccc(OCCOCCOCCOCCOCCOCCOc3cccn4c(C(=O)c5ccc(N)c(C(=O)[O-])c5)c(C)c(OC)c34)c12.[Na+].[Na+] [Example 2, disodium salt of 3,3′-{3,6,9,12,15-pentaoxaheptadecane-1,17-diylbis[oxy(1-methoxy-2-methylindolizine-8,3-diyl)carbonyl]}bis(6-aminobenzoic acid)]
[1]
  activity on the in vitro angiogenesis model: active

## COc1cc(C(=O)c2nc(-c3cccc(C(=O)[O-])c3)c3c(OCCOCCOCCOCCOCCOCCOc4cccn5c(C(=O)c6ccc(N)c(OC)c6)nc(-c6cccc(C(=O)[O-])c6)c45)cccn23)ccc1N.[Na+].[Na+] [Example 8, Disodium salt of 3,3′-(3,6,9,12,15-pentaoxaheptadecane-1,17-diylbis{oxy[3-(4-amino-3-methoxybenzoyl)imidazo[1,5-a]pyridine-8,1-diyl]})dibenzoic acid]
[1]
  activity on the in vitro angiogenesis model: active

## Cc1c(OCCOCCOCCOCCOCCOCCOCCOc2c(C)c(C(=O)c3ccc(N)c(C(=O)[O-])c3)n3ccccc23)c2ccccn2c1C(=O)c1ccc(N)c(C(=O)[O-])c1.[Na+].[Na+] [Example 21, Disodium salt of 3,3′-{3,6,9,12,15,18-hexaoxaicosane-1,20-diylbis[oxy(2-methylindolizine-1,3-diyl)carbonyl]}bis(6-aminobenzoic acid)]
C57 mice
  activity in the ischaemic leg model (post-ischaemic perfusion recovery): significant activity

## Cc1c(NC(=O)c2cccc(OCC(=O)NCCNC(=O)COc3cccc(C(=O)Nc4c(C)c(C(=O)c5ccc(N)c(C(=O)[O-])c5)n5ccccc45)c3)c2)c2ccccn2c1C(=O)c1ccc(N)c(C(=O)[O-])c1.[Na+].[Na+] [Example 44]
FGF-R1β-hMp1
  activity on the Baf/3-FGFR1β proliferation: active
FGF-R4α-hMp1
  activity on the Baf/3-FGF-R4α proliferation: active
